According to patent US20250066350A1, “AROMATIC HETEROCYCLE-SUBSTITUTED COMPOUNDS, AND PREPARATION METHOD THEREFOR AND USE THEREOF” (Innovstone Therapeutics Limited, priority 2021, published 2025):
Where two headings read alike, the source gives them in different places.

Legend:
[1] = system: LoVo cells; assay: LoVo cell proliferation experiment (CellTiter-Glo, intracellular ATP); format: cell-based; settings: LoVo human colon cancer cells, 4 days, read-out: IC50 for inhibition of LoVo cell proliferation
Experimental: The following method is used to evaluate the inhibitory effect of the compounds of the present invention on LoVo cell proliferation according to the IC50 values by means of detecting the intracellular ATP content. The experimental method is briefly described as follows:
1. LoVo, human colon cancer tumor cells (Co-bioer, CBP60032)
LoVo cells were cultured in F-12K medium containing 10% FBS and passaged 2 to 3 times a week at a split ratio of 1:3 or 1:5. During passage, the cells were trypsinized and transferred to a centrifuge tube. The tube was centrifuged at 1000 rpm for 5 minutes, the supernatant medium was discarded, and fresh medium was added to resuspend the cells. 100 μL of cell suspension at a density of 1.5×10^4 cells/mL was added to a 96-well cell culture plate, and 100 μL of complete medium only was added to the periphery wells of the 96-well plate. The culture plate was incubated in an incubator for 24 hours (37° C., 5% CO2).
The sample to be tested was diluted to 1 mM with DMSO, diluted 3-fold serially to 8 concentrations, and prepared to 200× dilution with cell culture medium. Blank and control wells were set. 5 μL of the solution containing the compound to be tested prepared in gradient concentrations was added to 95 μL of fresh medium. 100 μL of 1× culture medium containing the compound was added to the culture plate. The culture plate was incubated in an incubator for 4 days (37° C., 5% CO2). 50 μL of CellTiter-Glo reagent was added to each well of the 96-well cell culture plate, and the plate was placed at room temperature in the dark for 5-10 min. The chemiluminescent signal values were read in PHERAstar, and data were processed using GraphPad software.
The inhibitory effect of the compounds of the present invention on LoVo cell proliferation can be determined by the test described above, and the measured IC50 values are shown in Table 2.

[2] = system: SNU-601 cells; assay: SNU-601 cell proliferation experiment (CellTiter-Glo, intracellular ATP); format: cell-based; settings: SNU-601 human gastric cancer cells, 5 days, read-out: IC50 for inhibition of SNU-601 cell proliferation
Experimental: The following method is used to evaluate the inhibitory effect of the compounds of the present disclosure on SNU-601 cell proliferation according to the IC50 values by means of detecting the intracellular ATP content. The experimental method is briefly described as follows:
1. SNU-601, human gastric cancer tumor cells (Co-bioer, CBP60507)
SNU-601 cells were cultured in RPMI 1640 medium containing 10% FBS and passaged 2 to 3 times a week at a split ratio of 1:5 or 1:10. During passage, the cells were trypsinized and transferred to a centrifuge tube. The tube was centrifuged at 1000 rpm for 5 minutes, the supernatant medium was discarded, and fresh medium was added to resuspend the cells. 195 μL of cell suspension at a density of 5.128×10^3 cells/mL was added to a 96-well cell culture plate, and 200 μL of complete medium only was added to the periphery wells of the 96-well plate. The culture plate was incubated in an incubator for 24 hours (37° C., 5% CO2).
The sample to be tested was diluted to 2 mM with DMSO, diluted 3-fold serially to 10 concentrations. Blank and control wells were set. 10 μL of the solution containing the compound to be tested prepared in gradient concentrations was added to 50 μL of fresh medium. 5 μL of the above culture medium solution containing the compound was added to the culture plate. The culture plate was incubated in an incubator for 5 days (37° C., 5% CO2). 50 μL of CellTiter-Glo reagent was added to each well of the 96-well cell culture plate after discarding 100 μL/well, and the plate was shaken at room temperature in the dark for 10 min. The chemiluminescent signal values were read in PHERAstar, and data were processed using GraphPad software.
The inhibitory effect of the compounds of the present invention on SNU-601 cell proliferation can be determined by the test described above, and the measured IC50 values are shown in Table 3.

[3] = target: ATR enzyme (Homo sapiens (Human), UniProt Q13535); assay: Inhibitory effect on ATR enzyme (HTRF, phospho-P53); format: biochemical; settings: 90 minutes incubation, 150 nM ATP final; read-out: IC50 for ATR enzyme inhibition
ATR enzyme, sequence (Q13535 whole entry): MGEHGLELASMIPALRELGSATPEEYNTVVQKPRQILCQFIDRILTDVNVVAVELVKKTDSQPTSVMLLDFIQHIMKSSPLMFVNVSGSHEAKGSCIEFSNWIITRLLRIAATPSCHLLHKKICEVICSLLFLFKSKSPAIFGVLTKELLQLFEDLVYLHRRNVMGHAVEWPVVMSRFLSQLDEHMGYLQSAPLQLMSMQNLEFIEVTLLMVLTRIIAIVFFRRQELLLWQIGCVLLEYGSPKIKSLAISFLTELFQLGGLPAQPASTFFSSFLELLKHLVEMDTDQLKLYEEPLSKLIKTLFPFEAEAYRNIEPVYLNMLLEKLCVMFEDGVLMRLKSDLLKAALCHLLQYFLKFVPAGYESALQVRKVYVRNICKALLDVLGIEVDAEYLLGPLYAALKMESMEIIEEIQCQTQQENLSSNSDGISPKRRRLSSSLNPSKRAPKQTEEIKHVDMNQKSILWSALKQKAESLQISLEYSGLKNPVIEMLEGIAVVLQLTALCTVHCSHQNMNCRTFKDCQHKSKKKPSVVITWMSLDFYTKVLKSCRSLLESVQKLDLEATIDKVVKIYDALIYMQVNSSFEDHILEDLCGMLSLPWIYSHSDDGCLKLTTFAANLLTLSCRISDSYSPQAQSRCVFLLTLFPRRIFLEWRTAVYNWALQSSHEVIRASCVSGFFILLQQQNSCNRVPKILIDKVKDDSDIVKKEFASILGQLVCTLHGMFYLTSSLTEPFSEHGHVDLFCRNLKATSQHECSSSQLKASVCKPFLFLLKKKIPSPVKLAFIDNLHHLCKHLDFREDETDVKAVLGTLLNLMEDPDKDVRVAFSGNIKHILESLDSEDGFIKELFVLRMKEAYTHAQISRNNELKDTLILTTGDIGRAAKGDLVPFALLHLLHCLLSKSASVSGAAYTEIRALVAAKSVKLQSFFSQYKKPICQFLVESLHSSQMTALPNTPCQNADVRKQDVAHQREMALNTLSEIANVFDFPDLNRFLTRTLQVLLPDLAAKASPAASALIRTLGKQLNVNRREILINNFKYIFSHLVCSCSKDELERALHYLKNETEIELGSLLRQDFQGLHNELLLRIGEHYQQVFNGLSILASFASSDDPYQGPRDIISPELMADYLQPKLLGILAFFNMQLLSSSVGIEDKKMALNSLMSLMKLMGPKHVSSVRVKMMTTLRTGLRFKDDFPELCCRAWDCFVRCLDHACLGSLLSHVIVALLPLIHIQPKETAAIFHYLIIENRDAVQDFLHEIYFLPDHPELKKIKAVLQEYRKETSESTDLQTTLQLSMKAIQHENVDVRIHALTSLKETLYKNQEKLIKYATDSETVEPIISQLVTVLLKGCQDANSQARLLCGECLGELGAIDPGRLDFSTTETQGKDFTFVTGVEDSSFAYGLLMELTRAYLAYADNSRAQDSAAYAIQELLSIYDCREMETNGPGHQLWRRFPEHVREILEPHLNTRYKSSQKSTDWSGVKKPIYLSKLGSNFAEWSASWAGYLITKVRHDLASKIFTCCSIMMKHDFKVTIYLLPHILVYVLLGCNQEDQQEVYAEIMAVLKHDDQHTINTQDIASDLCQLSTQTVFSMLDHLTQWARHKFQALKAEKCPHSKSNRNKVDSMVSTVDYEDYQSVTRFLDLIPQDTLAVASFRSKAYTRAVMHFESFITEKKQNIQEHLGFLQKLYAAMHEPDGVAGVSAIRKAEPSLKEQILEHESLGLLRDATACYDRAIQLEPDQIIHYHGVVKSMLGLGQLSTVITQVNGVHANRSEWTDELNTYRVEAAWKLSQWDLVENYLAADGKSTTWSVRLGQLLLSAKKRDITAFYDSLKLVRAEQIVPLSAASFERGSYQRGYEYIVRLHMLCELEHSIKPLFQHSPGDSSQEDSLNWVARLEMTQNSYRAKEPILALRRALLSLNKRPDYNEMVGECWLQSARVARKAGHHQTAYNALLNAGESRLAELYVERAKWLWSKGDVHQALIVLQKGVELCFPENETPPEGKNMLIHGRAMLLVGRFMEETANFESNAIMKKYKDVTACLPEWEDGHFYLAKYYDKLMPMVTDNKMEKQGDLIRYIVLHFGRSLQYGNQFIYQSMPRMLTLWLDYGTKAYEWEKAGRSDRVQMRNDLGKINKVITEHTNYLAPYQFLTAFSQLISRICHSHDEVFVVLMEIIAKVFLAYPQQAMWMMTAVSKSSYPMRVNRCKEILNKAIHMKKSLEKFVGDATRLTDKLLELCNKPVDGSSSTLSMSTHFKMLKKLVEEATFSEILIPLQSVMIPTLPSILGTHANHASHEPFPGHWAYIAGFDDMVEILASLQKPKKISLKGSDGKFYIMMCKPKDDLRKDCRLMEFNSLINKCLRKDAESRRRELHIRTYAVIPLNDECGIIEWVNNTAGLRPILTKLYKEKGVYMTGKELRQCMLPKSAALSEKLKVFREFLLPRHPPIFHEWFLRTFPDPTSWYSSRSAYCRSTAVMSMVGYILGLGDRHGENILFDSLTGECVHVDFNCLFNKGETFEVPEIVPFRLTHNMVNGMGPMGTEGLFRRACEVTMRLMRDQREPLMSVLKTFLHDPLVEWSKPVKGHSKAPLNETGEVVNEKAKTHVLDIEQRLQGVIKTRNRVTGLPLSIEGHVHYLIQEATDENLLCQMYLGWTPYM
ATR enzyme, sequence (Q8WXE1 whole entry partner): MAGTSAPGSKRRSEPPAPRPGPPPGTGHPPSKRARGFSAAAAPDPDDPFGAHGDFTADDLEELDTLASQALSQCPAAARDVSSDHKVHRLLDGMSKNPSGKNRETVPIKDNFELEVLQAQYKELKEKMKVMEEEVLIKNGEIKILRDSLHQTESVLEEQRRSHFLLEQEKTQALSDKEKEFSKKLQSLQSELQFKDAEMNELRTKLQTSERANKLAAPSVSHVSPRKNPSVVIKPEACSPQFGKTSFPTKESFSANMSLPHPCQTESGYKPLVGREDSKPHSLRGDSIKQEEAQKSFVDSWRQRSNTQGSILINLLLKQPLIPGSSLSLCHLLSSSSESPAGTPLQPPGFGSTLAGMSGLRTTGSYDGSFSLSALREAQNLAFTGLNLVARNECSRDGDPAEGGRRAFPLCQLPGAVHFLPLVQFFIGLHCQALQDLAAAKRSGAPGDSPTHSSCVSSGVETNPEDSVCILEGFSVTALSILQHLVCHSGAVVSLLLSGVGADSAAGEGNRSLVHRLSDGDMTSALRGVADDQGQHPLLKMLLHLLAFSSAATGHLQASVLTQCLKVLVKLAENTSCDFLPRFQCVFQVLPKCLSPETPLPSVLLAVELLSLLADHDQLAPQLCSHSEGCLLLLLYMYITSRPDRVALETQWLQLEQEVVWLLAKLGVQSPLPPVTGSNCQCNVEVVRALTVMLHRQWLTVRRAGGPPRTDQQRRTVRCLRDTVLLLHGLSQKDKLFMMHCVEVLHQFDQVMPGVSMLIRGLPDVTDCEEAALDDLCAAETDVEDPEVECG
Experimental: Test Example 1. Inhibitory Effect of Compounds of the Present Invention on ATR Enzyme
The following method is used to determine the inhibitory effect of the compounds of the present invention on the ATR enzyme. The experimental method is briefly described as follows:
1. ATR enzyme (Eurofins Pharma Discovery Services, 14-953M)
2. GST-tagged P53 protein (Eurofins Pharma Discovery Services, 14-952M)
15 nM ATR enzyme, 80 nM P53 protein, 300 nM ATP (the final concentrations were 40 nM and 150 nM, respectively), and small molecule compounds of various concentrations (the final concentrations (nM) of the ten points were 2985.0, 895.5, 298.5, 110.56, 33.17, 11.06, 4.09, 1.23, 0.41 and 0.15, respectively, and the final dimethyl sulfoxide concentration was 0.498%) were mixed and incubated at room temperature for 90 minutes. 10 μL of 2× cocktail buffer was added to the mixture of ATR, compound and substrate in the assay plate (anti-phospho-p53-Eu and anti-GST-d2 were diluted in the assay buffer). The resulting mixture was centrifuged at 1000 rpm for 30 seconds, and incubated overnight at 4° C. in the dark (a total of 20 μl in each well). The FRET signal (endpoint) was measured in the Envision instrument (HTRF 665/612 ratio was calculated at 665 nm emission and 612 nm emission). Data were processed using GraphPad software.
The inhibitory activity of the compounds of the present invention on the ATR enzyme can be determined by the test described above, and the measured IC50 values are shown in Table 1.

Compound	IC50 ([1]; 96 h) [nM]	IC50 ([2]; 120 h) [nM]	IC50 [3] [nM]	IC50 [1] [nM]	IC50 [2] [nM]
C[C@@H]1COCCN1c1cc(C2CCCOC2)c2cnn(-c3cc[nH]n3)c2n1 (stereo partly drawn) [Compound 13, (3R)-4-(1-(1H-pyrazol-3-yl)-4-(tetrahydro-2H-pyran-3-yl)-1H-pyrazole[3,4-b]pyridin-6-yl)-3-methylmorpholine]	20 to 100				
C[C@@H]1COCCN1c1cc(-c2ccc(N3CCCCCC3=O)cc2F)c2cnn(-c3cc[nH]n3)c2n1 [Example 197]	20 to 100	10 to 100			
C[C@@H]1COCCN1c1cc(-c2ccc(N3CCCCC3=O)cc2)c2cnn(-c3cc[nH]n3)c2n1 [Compound 7, (R)-1-(4-(6-(3-methylmorpholinyl)-1-(1H-pyrazolyl-3-yl)-1H-pyrazolyl[3,4-b]pyridin-4-yl)phenyl)piperidin-2-one]	20 to 100	10 to 100			
COCC#Cc1cc(N2CCOC[C@H]2C)nc2c1cnn2-c1cc[nH]n1 [Compound 5, (R)-4-(4-(3-methoxypropyl-1-alkynyl)-1-(1H-pyrazol-3-yl)-1H-pyrazole[3,4-b]pyridin-6-yl)-3-methylmorpholine]	≤ 20				
C[C@@H]1COCCN1c1cc(C2(O)CCC3(CC2)CO3)c2cnn(-c3cc[nH]n3)c2n1 (stereo partly drawn) [Compound 2, (R)-6-(6-(3-methylmorpholinyl)-1-(1H-pyrazol-3-yl)-1H-pyrazole[3,4-b]pyridin-4-yl)-1-oxaspiro[2.5]octan-6-ol]	20 to 100				
C[C@@H]1COCCN1c1cc(-c2ccc(NC(=O)c3cccc(S(C)(=O)=O)c3)cc2)c2cnn(-c3cc[nH]n3)c2n1 [Example 145]	20 to 100	10 to 100			
C[C@@H]1COCCN1c1cc(-c2ccc(N3CCCC3=O)cc2F)c2cnn(-c3cc[nH]n3)c2n1 [Example 59, (R)-1-(3-fluoro-4-(6-(3-methylmorpholino)-1-(1H-pyrazol-3-yl)-1H-pyrazolo[3,4-b]pyridin-4-yl)phenyl)pyrrolidin-2-one]		≤ 10	≤ 10		
C[C@@H]1COCCN1c1cc(-c2c(F)cc(N3CC4CCC(O4)C3=O)cc2F)c2cnn(-c3cc[nH]n3)c2n1 (stereo partly drawn) [Example 261]	20 to 100	10 to 100	≤ 10		
C[C@@H]1COCCN1c1cc(-c2ccc(NC(=O)N3CCNCC3)cc2)c2cnn(-c3cc[nH]n3)c2n1 [Example 219]		10 to 100	≤ 10		
CCC(=O)Nc1ccc(-c2cc(N3CCOC[C@H]3C)nc3c2cnn3-c2cc[nH]n2)c(F)c1 [Example 233]		10 to 100	≤ 10		
CC(=O)C(=O)Nc1ccc(-c2cc(N3CCOC[C@H]3C)nc3c2cnn3-c2cc[nH]n2)cc1 [Example 31, (R)-N-(4-(6-(3-methylmorpholino)-1-(1H-pyrazol-3-yl)-1H-pyrazolo[3,4-b]pyridin-4-yl)phenyl)-2-oxopropanamide]		10 to 100	≤ 10		
CC(=O)Nc1ccc(-c2cc(N3CCOC[C@H]3C)nc3c2cnn3-c2cc[nH]n2)cc1 [Example 30, (R)-N-(4-(6-(3-methylmorpholinyl)-1-(1H-pyrazolyl-3-yl)-1H-pyrazolyl[3,4-b]pyridin-4-yl)phenyl)acetamide]		10 to 100	≤ 10		
C[C@@H]1COCCN1c1cc(-c2ccc(NC(=O)c3cccs3)cc2)c2cnn(-c3cc[nH]n3)c2n1 [Example 172]			≤ 10		10 to 100
C#CC1CCC(O)(c2cc(N3CCOC[C@H]3C)nc3c2cnn3-c2cc[nH]n2)CC1 (stereo partly drawn) [Example 147, (R)-4-ethynyl-1-(6-(3-methylmorpholinyl)-1-(1H-pyrazolyl-3-yl)-1H-pyrazolyl[3,4-b]pyridin-4-yl)cyclohexanol]	≤ 20	≤ 10	≤ 10		
CC1CCCN1C(=O)Nc1ccc(-c2cc(N3CCOC[C@H]3C)nc3c2cnn3-c2cc[nH]n2)cc1 (stereo partly drawn) [Example 246]		10 to 100	≤ 10		

Further lines, results first:

IC50 ([1]; 96 h) [nM]	IC50 ([2]; 120 h) [nM]	IC50 [3] [nM]	IC50 [1] [nM]	IC50 [2] [nM]	Compound
20 to 100	10 to 100	≤ 10			C[C@@H]1COCCN1c1cc([C@]2(O)C[C@H]3CC[C@@H](C2)O3)c2cnn(-c3ccn[nH]3)c2n1 [RP3500, reference compound]
20 to 100	≤ 10	≤ 10			C[C@@H]1COCCN1c1cc(-c2ccc(NC(=O)N3CCCC3)c(C#N)c2)c2cnn(-c3cc[nH]n3)c2n1 [Example 228]
20 to 100	10 to 100	≤ 10			C[C@@H]1COCCN1c1cc(C2(O)CCC(C#N)CC2)c2cnn(-c3cc[nH]n3)c2n1 (stereo partly drawn) [RP103, reference compound]
20 to 100	10 to 100	≤ 10			C[C@@H]1COCCN1c1cc(-c2ccc(N3CCCCS3(=O)=O)cc2F)c2cnn(-c3cc[nH]n3)c2n1 [Example 239]
		≤ 10	20 to 100	10 to 100	C[C@@H]1COCCN1c1cc(-c2ccc(NC(=O)c3cocn3)cc2)c2cnn(-c3cc[nH]n3)c2n1 [Example 164]
20 to 100	10 to 100	≤ 10			C[C@@H]1COCCN1c1cc(-c2ccc(NC(=O)c3cocn3)cc2F)c2cnn(-c3cc[nH]n3)c2n1 [Example 235]
	10 to 100	≤ 10			C[C@@H]1COCCN1c1cc(-c2ccc(NC(=O)NC3CC3)cc2)c2cnn(-c3cc[nH]n3)c2n1 [Example 33, (R)-1-cyclopropyl-3-(4-(6-(3-methylmorpholinyl)-1-(1H-pyrazolyl-3-yl)-1H-pyrazolyl[3,4-b]pyridin-4-yl)phenyl)urea]
	10 to 100	≤ 10			C[C@@H]1COCCN1c1cc(-c2ccc(NC(=O)N3CCCCC3)c(F)c2)c2cnn(-c3cc[nH]n3)c2n1 [Example 244]
		≤ 10	20 to 100	10 to 100	C[C@@H]1COCCN1c1cc(-c2ccc(NC(=O)c3ccncc3)cc2)c2cnn(-c3cc[nH]n3)c2n1 [Example 148]
	10 to 100	≤ 10			C[C@@H]1COCCN1c1cc(-c2ccc(N3CC4CCC(O4)C3=O)cn2)c2cnn(-c3cc[nH]n3)c2n1 (stereo partly drawn) [Example 237]
	10 to 100	≤ 10			C[C@@H]1COCCN1c1cc(-c2ccc(NC(=O)C3CC3)cc2F)c2cnn(-c3cc[nH]n3)c2n1 [Example 234]
		≤ 10		10 to 100	C[C@@H]1COCCN1c1cc(-c2ccc(NC(=O)C3CC(O)C3)cc2)c2cnn(-c3cc[nH]n3)c2n1 (stereo partly drawn) [Example 160]
